Test results: patent US20120065179A1, “PRODRUG COMPRISING BETA-KETO CARBOXYLIC ACID, BETA-KETO CARBOXYLIC ACID SALT OR BETA-KETO CARBOXYLIC ACID ESTER FOR DRUG DELIVERY” (YKI, Ytemiska Institutet AB, priority 2009, published 2012)
In brackets after ≈: the same amount, converted by molar mass. Several values for one entry are separate records, joined by “and”; a condition that tells them apart may be missing. Equal entries are not always repeated. Where two headings read alike, the source gives them in different places. Marks after values point to notes of the source that are not given here. One block for each compound: values may come before it.

Assays:
[1] = Storage stability of benzoylacetate salts and their corresponding acid (HPLC or gravimetric); format: physicochemical; settings: solid
Protocol: A 0.2 M solution of ethyl benzoyl acetate (90%, Sigma Aldrich) in 0.5 M NaOH (aq) was prepared at room temperature and stirred for typically 5-24 hours, still at room temperature. After this time a major part of the ethyl benzoyl acetate had been transformed into dissolved sodium benzoyl acetate, as evidenced by monitoring the reaction by analysis of samples by reversed phase HPLC. Some acetophenone and remaining ethyl benzoyl acetate were typically present in the samples, but in minor amounts. The method employed a C8 column with an inner diameter of 150×4.6 mm and 5 micron particles. The mobile phase consisted of 400 ml deionized water+600 ml acetonitrile+0.196 g H3PO4 (85%)+2.760 g NaH2PO4*H2O. The flow rate was set to 1.0 mL/min and UV detection at 254 nm was employed for analysis of the compounds ethylbenzoylacetate (precursor), benzoylacetate (model prodrug) and acetophenone (model drug).
The storage stability of the sodium and calcium salts of benzoylacetate, and of benzoylacetic acid, in solid form, and in aqueous solutions, was investigated by storage of samples under various conditions (see Table 3a above) with regular HPLC- or gravimetric measurements of the samples from time to time. Samples denoted “neutralized” were prepared from a solution prepared as described in Example 1, which was neutralized with diluted HCl after performing the steps in Example 1.
From the data it can be concluded that the best storage stability at room temperature is obtained by storage in the form of the calcium salt.

[2] = Re-activation of storage stabile beta-keto calcium salt by dissolution, release of ketone (odour); format: physicochemical
Protocol: 25 mg of the precipitated and dried calcium salt prepared in Example 2, was, after being subjected to the storage stability test of Example 4, dissolved in 5.66 g of tap water and boiled for two minutes.

[3] = Aqueous solubility of benzoylacetate salts (Example 13a); settings: water
[4] = water at 25° C.; Sepassi et al, 2007; cited from earlier work
[5] = Sustained release of Nabumetone from beta-keto sodium salt prodrug in phosphate buffer at blood pH and 37° C.; format: physicochemical; settings: released from beta-keto salt prodrug, phosphate buffer pH about 7.4, 37° C.
Protocol: 20.91 mg of the product synthesised as described in Example 8 (however in this case not purified by the chromatographic step in Example 8) was mixed with 1 ml 0.5 M NaOH at room temperature, whereby a portion of the sample was dissolved. After 30 minutes the mixture was placed in an oven at 37° C., and 10 μl samples was taken at regular intervals, diluted with 1 ml mobile phase (as in Example 1), and analyzed by HPLC, using UV-detection at 240 nm. 3.0 hours after initiation of the saponification reaction, the precursor (retention time 4.6 min) could no longer be detected, and the precursor peak was replaced by a peak from the intermediary beta-keto salt prodrug (retention time 2.3 minutes). At this point in time, a solution of 9 ml H2O and 0.0762 g NaH2PO4 was added to the sample, in order to create a NaH2PO4/Na2HPO4 pH buffer by neutralization of the NaOH remaining in the sample. […] The sample was again placed in the oven at 37° C. and the decarboxylation of the beta-keto salt in solution, gradually giving the commercially available drug Nabumetone, was followed by HPLC by taking 100 μl samples at regular intervals and diluting them with 1 ml mobile phase (see Example 1 above) before injection on the HPLC. It can be seen from the data that Nabumetone was continuously released into the solution via the spontaneous, non-enzymatic decarboxylation of the dissolved prodrug sodium salt, over a period of more than 120 hours. The half-life of the prodrug was estimated to be about 70 hours in this medium and under the conditions used.

[6] = Aqueous solubility of sodium beta-keto salt prodrug of Nabumetone (Example 13b); format: physicochemical
Protocol: 12.1 mg of the of ethyl-5-(6-methoxy-2-naphthyl)-beta-keto-pentanoate product prepared and purified as in Example 8 was mixed with 25 mL of a 0.5 M aqueous solution NaOH and homogenised on a vortex mixer. […] 15 minutes after preparation of the sample, the sample was transferred to an oil bath set at 37° C. with continuous gentle magnetic stirring, and kept there for 3.5 hours. Crystalline flakes remained in the sample at the end of the 3.5 hours heat-treatment, and the sample was thereafter centrifuged and the clear liquid above the sedimented crystals was analysed by HPLC as described above.
After storage around one hour at room temperature a fraction of the sample was then filtered twice through a 0.2 μm filter (Whatman, 0.2 μm PS) fitted to a syringe to give a clear solution. 200 μL of this filtered solution was transferred, in a tightly closed vessel, to an oil bath at 95° C. and kept at this temperature for about 5 hours to bring about quantitative decarboxylation of the labile, dissolved beta-keto carboxylic salt prodrug derivative of Nabumetone.
The heated sample was then mixed with 35 mL of mobile phase (see Example 1) whereby a few solid crystals (comprising Nabumetone) was seen to not dissolve. In order to assure a correct sampling for HPLC analysis, 5 mL of the 35 mL sample was filtered through a 0.2 μm filter, after the whole 35 mL sample had been pH adjusted to 4.21 by 300 μL 0.1 M HCl+100 μL 1 M HCl, to assure that the pH of the sample was close to the pH of the mobile phase itself (pH 4.30). The filtered solution was thereafter analysed by HPLC and found to contain 0.777 mg Nabumetone per liter. If recalculated to the corresponding concentration of nabumetone equivalents in the form of the beta-keto salt prodrug present in dissolved form in the filtered 200 μl sample that was subsequently heat-treated to form Nabumetone above, the obtained concentration corresponds to a Nabumetone concentration of 136.7 mg Nabumetone per liter in the clear aqueous solution, at room temperature, before the heat-treatment at 95° C.

[7] = Storage stability of beta-keto calcium salt prodrug of Nabumetone (17 days at 60° C., HPLC); format: physicochemical
[8] = In-vitro hydrolysis of Nabumetone beta-keto ester pro-prodrug and release of Nabumetone in model blood electrolyte solution at 37° C.; format: physicochemical; settings: for Nabumetone formed in the solution: under-estimated, precipitating Nabumetone compromised sampling
rat = settings: cited from earlier work

Absolute amount of calcium benzoylacetate in sample (wt %, from HPLC) ([1]; 1 days at room T and typical indoor humidity, 0 days at 50% RH and room T, 0 days at 60° C. in oven): 35.9 wt %
Absolute amount of calcium benzoylacetate in sample (wt %, from HPLC) ([1]; 1.9 days at room T and typical indoor humidity, 0 days at 50% RH and room T, 0 days at 60° C. in oven): 34.2 wt %
Absolute amount of calcium benzoylacetate in sample (wt %, from HPLC) ([1]; 8 days at room T and typical indoor humidity, 0 days at 50% RH and room T, 0 days at 60° C. in oven): 43.0 wt %
Absolute amount of calcium benzoylacetate in sample (wt %, from HPLC) ([1]; 9 days at room T and typical indoor humidity, 0 days at 50% RH and room T, 103 days at 60° C. in oven): 45.6 wt %
Absolute amount of calcium benzoylacetate in sample (wt %, from HPLC) ([1]; 9 days at room T and typical indoor humidity, 103 days at 50% RH and room T, 0 days at 60° C. in oven): 32.1 wt %
Absolute amount of calcium benzoylacetate in sample (wt %, from HPLC) ([1]; 28 days at room T and typical indoor humidity, 0 days at 50% RH and room T, 0 days at 60° C. in oven): 33.1 wt %
Absolute amount of calcium benzoylacetate in sample (wt %, from HPLC) ([1]; 112 days at room T and typical indoor humidity, 0 days at 50% RH and room T, 0 days at 60° C. in oven): 40.4 wt %
release of acetophenone (odour) ([2]; 25 mg dissolved in 5.66 g tap water and boiled for two minutes, after storage stability test): strong odour of acetophenone
Solubility ([3]; as Ca(benzoylacetate)2, corrected for 40 wt % content): 69 mM
Solubility (mM, as acetophenone equivalents) ([3]; benzoylacetate in the solution, corrected for 40 wt % content): 138 mM
solubility limit ([3]; dry calcium salt sample containing only 40 wt % calcium benzoyl acetate): ~63 mg/mL
SMILES: O=C([O-])CC(=O)c1ccccc1.O=C([O-])CC(=O)c1ccccc1.[Ca+2] [calcium benzoylacetate, Ca(benzoylacetate)2]
release of acetophenone (odour) ([2]; similar amount kept in dry form in an identical beaker): did not give rise to any acetophenone odour

Nabumetone (HPLC area @ 3.8 min) ([5]; 3.25 h after initiation of saponification): 0
Nabumetone (HPLC area @ 3.8 min) ([5]; 5.1 h after initiation of saponification): 0
Nabumetone (HPLC area @ 3.8 min) ([5]; 21.45 h after initiation of saponification): 5265
Nabumetone (HPLC area @ 3.8 min) ([5]; 24.25 h after initiation of saponification): 5388 and 5496
Nabumetone (HPLC area @ 3.8 min) ([5]; 28.15 h after initiation of saponification): 5804
Nabumetone (HPLC area @ 3.8 min) ([5]; 45.4 h after initiation of saponification): 10083
Nabumetone (HPLC area @ 3.8 min) ([5]; 50 h after initiation of saponification): 11400
Nabumetone (HPLC area @ 3.8 min) ([5]; 78 h after initiation of saponification): 13359
Nabumetone (HPLC area @ 3.8 min) ([5]; 117 h after initiation of saponification): 18156
Nabumetone (HPLC area @ 3.8 min) ([5]; 194 h after initiation of saponification): 22484
Nabumetone found in filtered solution by HPLC ([6]; 200 μL filtered prodrug solution decarboxylated at 95° C. for about 5 hours, mixed with 35 mL mobile phase): 0.777 mg Nabumetone per liter
Area at retention time 3.8 minutes characteristic for detection of Nabumetone ([6]; clear liquid after 3.5 h at 37° C. in 0.5 M NaOH, 200 μL diluted with 5.0 ml mobile phase): 59 arbitrary units
Relative amount of calcium salt beta-keto prodrug/Nabumetone remaining after 17 days at 60° C. ([7]; 408 h): 45.3%
Obtained value (area units) ([7]; dry calcium salt after 17 days at 60° C., redissolved in water, HPLC): 1315 area units
Expected value if no breakdown occured during storage and a 100% yield was obtained upon precipitation with calcium chloride ([7]; recalculated for dilution): 90 area units
storage time after which sedimenting crystalline flakes of Nabumetone were detected in the sample ([8]; model blood solutes solution): 100 to 150 h
Nabumetone staying in a stabile dispersion (theoretical concentration) ([8]; model blood solutes solution with surface active beta-keto anion prodrug): 40 mg/L
Nabumetone formed in the solution ([8]; model blood solutes solution, Time 96.8 hours): (2656)* mg/L
Nabumetone formed in the solution ([8]; model blood solutes solution, Time 121.25 hours): (2715)* mg/L
Nabumetone formed in the solution ([8]; model blood solutes solution, Time 145.0 hours): (2423)* mg/L
Nabumetone formed in the solution ([8]; model blood solutes solution, Time 172.6 hours): (3508)* mg/L
Nabumetone formed in the solution ([8]; model blood solutes solution, Time 197.3 hours): (3240)* mg/L
Nabumetone formed in the solution ([8]; model blood solutes solution, Time 218.4 hours): (3859)* mg/L
Nabumetone formed in the solution ([8]; model blood solutes solution, Time 293.7 hours): (3013)* mg/L
SMILES: COc1ccc2cc(CCC(C)=O)ccc2c1 [Nabumetone, 4-(6-methoxy-2-naphthyl)-2-butanone]
Solubility [4]: 0.0047 mg/mL (≈ 20.6 µM)

SMILES: CN [methyl amine]
LD50 (rat): 100 mg/kg

SMILES: CCN [ethyl amine]
LD50 (rat): 280 mg/kg
